Settings: 343.15 K, Liquid, Vibrating tube method

CCCCCCCC(=O)OCC(COC(=O)CCCCCCC)(COC(=O)CCCCCCC)COC(=O)CCCCCCC [pentaerythritol tetraoctanoate]
Settings	mass density [kg/m3]
4105.1 kPa	929.1
4132.4 kPa	929.2
4136.6 kPa	929.1
4140.2 kPa	929.1
4142.5 kPa	929
4144.7 kPa	929.2
4148 kPa	929.2
4149.4 kPa	929
4149.6 kPa	929
4163.9 kPa	929.2
4189.2 kPa	929.1
4213.5 kPa	929.1
4238.2 kPa	929.2
4268.5 kPa	929.1
4295 kPa	929.3
4321.4 kPa	929.2
4348.4 kPa	929.2
4373.8 kPa	929.1
4394.2 kPa	929.2
4418.5 kPa	929.1
4438.6 kPa	929.2
4459 kPa	929.3
4483.8 kPa	929.4
4504.7 kPa	929.3
4525.8 kPa	929.4
4546.8 kPa	929.4
4573.1 kPa	929.3
4596.8 kPa	929.5
4619 kPa	929.5
4641.5 kPa	929.4
4713.3 kPa	929.5
4740.6 kPa	929.4
4763.8 kPa	929.5
4787 kPa	929.6
4811.1 kPa	929.6
4839.6 kPa	929.6
4864.5 kPa	929.5
4889.8 kPa	929.7
4915.8 kPa	929.8
4945.5 kPa	929.6
4970.5 kPa	929.8
4996.2 kPa	929.6
5026.3 kPa	929.7
5052.8 kPa	929.8
5079.6 kPa	929.8
5112.2 kPa	929.7
5139.3 kPa	929.8
5167 kPa	929.8
5189.5 kPa	929.8
5228.6 kPa	929.8
5257.5 kPa	929.9
5286.4 kPa	929.8
5321 kPa	930
5350.7 kPa	930
5380.5 kPa	929.9
5410.7 kPa	929.9
5447.9 kPa	929.9
5480.3 kPa	930
5514 kPa	930.1
5545.6 kPa	930.2
5572.5 kPa	930.2
5593.9 kPa	930.1
5619.7 kPa	930.1
5642.1 kPa	930.2
5664.3 kPa	930.2
5686.4 kPa	930.2
5712.7 kPa	930.3
5735.2 kPa	930.2
5757.8 kPa	930.3
5785.1 kPa	930.2
5808.1 kPa	930.2
5832 kPa	930.3
5855.9 kPa	930.3
5884.4 kPa	930.4
5908.6 kPa	930.4
5933.3 kPa	930.4
5959.2 kPa	930.5
5984.1 kPa	930.3
6013.9 kPa	930.4
6039.1 kPa	930.4
6064.3 kPa	930.5
6090.1 kPa	930.4
6121 kPa	930.5
6147.5 kPa	930.5
6174.6 kPa	930.5
6205.9 kPa	930.5
6232.5 kPa	930.6
6260.2 kPa	930.7
6288.7 kPa	930.6
6316.5 kPa	930.6
6348.8 kPa	930.7
6376.3 kPa	930.6
6404.7 kPa	930.6
6439.7 kPa	930.7
6468.8 kPa	930.7
6497.8 kPa	930.7
6532.7 kPa	930.8
6563.4 kPa	930.8
6593.5 kPa	930.9
6624.3 kPa	930.8
6662.3 kPa	930.8
6694.9 kPa	930.9
6726.4 kPa	930.9
6757.3 kPa	930.9
6788.9 kPa	931.1
6826.4 kPa	931
6858.7 kPa	931.1
6891.5 kPa	931
6930.9 kPa	931.2
6964.4 kPa	931
6998.3 kPa	931.1
7038.9 kPa	931.2
7073.6 kPa	931.2
7109 kPa	931.2
7146.6 kPa	931.3
7184.3 kPa	931.3
7220.4 kPa	931.2
7264.4 kPa	931.2
7301.6 kPa	931.4
7339.6 kPa	931.5
7378.1 kPa	931.3
7424.8 kPa	931.3
7463.5 kPa	931.5
7503.2 kPa	931.5
7535.8 kPa	931.5
7575 kPa	931.6
7614.7 kPa	931.5
7673.1 kPa	931.6
7715 kPa	931.7
7765.2 kPa	931.6
7808 kPa	931.8
7853.1 kPa	931.7
7898.8 kPa	931.7
7950.2 kPa	931.8
7984.6 kPa	931.8
8150.9 kPa	931.9
8189.7 kPa	932
8222.6 kPa	932
8255.6 kPa	932
8295.8 kPa	932.1
8329.6 kPa	932.1
8363.2 kPa	932.1
8515 kPa	932.1
8550.2 kPa	932.2
8585.9 kPa	932.3
8629.7 kPa	932.3
8666.6 kPa	932.3
8703.3 kPa	932.4

From the NIST ThermoML archive (doi:10.1021/je060271a)
